{
  "source": "patent US9734283B2",
  "about": "“Genomic features associated with epigenetic control regions and transgenerational inheritance of epimutations” (priority 2011, dated 2017)",
  "key": {"[1]": {"tested_on": "sperm promoter epigenome (DNA methylation)", "assay": "MeDIP-Chip analysis of F3 generation sperm promoter DNA methylation", "assay_type": "in vivo, rat", "conditions": "F3 generation sperm vs vehicle control; p<10^-5", "protocol": "Sperm heads were separated from tails through sonication following previously described protocol (without protease inhibitors) and then purified using a series of washes and centrifugations from a total of nine F3 generation rats per treatment lineage that were 120 days of age. DNA extraction on the purified sperm heads was performed as previously described. Equal concentrations of DNA from individual sperm samples were then used to produce pools of DNA material. Three DNA pools were produced in total per treatment, which contained the same amount of sperm DNA from three animals. Therefore a total of 45 animals were used for building three DNA pools per treatment for the 4 experimental groups plus controls. These DNA pools were then used for methylated DNA immunoprecipitation (MeDIP). MeDIP was performed as follows: 6 μg of genomic DNA was subjected to series of three 20 pulse sonications at 20% amplitude and the appropriate fragment size ([…]) was verified through 2% agarose gels; the sonicated genomic DNA was resuspended in 350 ul TE and denaturated for 10 min at 95° C. and then immediately placed on ice for 5 min; 100 ul of 5×IP buffer (50 mM Na-phosphate pH7, 700 mM NaCl, 0.25% Triton X-100) was added to the sonicated and denatured DNA. […]"}, "[2]": {"tested_on": "Harlan Sprague Dawley rats", "assay": "Onset of puberty in F1-F3 generation after F0 gestational exposure", "assay_type": "in vivo, rat", "source_text": "At proestrus as determined by daily vaginal smears, the female rats, (90 days) were pair-mated with male rats (120 days). On the next day, the females were separated and their vaginal smears were examined microscopically and if they were sperm-positive (day 0) the rats were tentatively considered pregnant and then weighed with a digital animal weighing balance to monitor increases in body weight. Vaginal smears were continued for monitoring diestrus status in these rats until day 7. […] These pregnant rats were then given daily intraperitoneal injections of any one of the following single chemicals or mixtures with an equal volume of sesame oil (Sigma) on days E-8 through E-14 of gestation. Treatment groups were Control, Pesticide (Permethrin+DEET), Plastics (Bisphenol-A, DBP and DEHP), Dioxin (TCDD), and Jet Fuel (JP8 hydrocarbon). The pregnant female rats treated with various mixtures were designated as the F0 generation. When there was a drop in the litter size and the sex ratio of pups in F1 generation of Plastics group, another treatment group was included with only half the dose of Bisphenol-A, DBP and DEHP and this group was designated ‘Low Dose Plastics’ group.\nThe offspring of the F0 generation were the F1 generation. Likewise F2 and F3 generation offspring were generated. These rats were weaned from their mothers at 21 days of age. At weaning, the following weaning traits were measured; litter size, sex ratio, weaning weight (in grams), and anogenital index (AGI). […] Weaning weights of rats were measured by a digital balance. AGI was computed as the AGD in mm (from the bottom of the anal opening to the top of the genital opening) per gram of body weight at weaning. Starting at the age of 30 days for females and 35 days for males, puberty checks were performed. These checks were performed on a daily basis until puberty in each rat was confirmed. Onset of puberty for females was indicated by a clear vaginal opening, and for males it was indicated when the glans penis was able to fully extend free of the preputial fold (balano-preputial separation)."}, "[3]": {"assay": "Serum hormone levels, F3 generation", "assay_type": "in vivo, rat", "conditions": "F3 generation males", "protocol": "Both female and male rats of F1, F2 and F3 generation at 90-120 days of age were euthanized by CO2 inhalation and cervical dislocation for dissection, collection and examination of tissues including testis, epididymis, and ovary. Body and tissue weights were measured at dissections. Blood samples were collected, allowed to clot, centrifuged and serum samples stored for hormone assays. Tissues were fixed in Bouins solution (Sigma) and 70% ethanol, then processed for paraffin embedding by standard procedures for histopathology examination. Five-micrometer sections were made and were either unstained or stained with H & E stain."}, "[4]": {"tested_on": "testicular spermatogenic cells", "assay": "Testicular spermatogenic cell apoptosis (TUNEL assay), F1-F3 lineage after F0 gestational exposure", "assay_type": "in vivo, mouse", "conditions": "129 strain, flutamide 20 mg/kg/day IP to F0 E7-E13; any age or generation analyzed; vs control", "protocol": "(§1) The experimental design involved exposing gestating female inbred 129 strain and outbred CD-1 strain mice to daily intraperitoneal (IP) injections of vehicle (DMSO) (control) or vinclozolin at two doses, 100 mg/kg/day (V1) or 200 mg/kg/day (V2), between embryonic day 7-13 of gestation. In addition, a comparison was used with flutamide IP injections at a 20/mg/kg/day dose. The F1 generation males and females from different litters were bred to generate the F2 generation animals and F2 generation males and females from different litters were bred to generate the F3 generation animals, see Methods below. No sibling or cousin breedings occurred to avoid any inbreeding artifacts. Selected F1, F2 and F3 generation animals from postnatal 90 (P90) or 300 (P300) days of age were analyzed for testis, sperm and other pathologies as previously described.^11, 20, 21\nTimed pregnant inbred 129 mice were given intraperitoneal injections with vinclozolin (100 mg/kg·day, 99% pure; ChemService, West Chester, Pa.), flutamide (20 mg/kg·day, Sigma, St. Louis, Mo.) or DMSO in sesame oil (vehicle) as controls, while timed pregnant outbred CD-1 mice were given intraperitoneal injections (IP) with vinclozolin doses: 100 mg/kg·day (V1) or 200 mg/kg·day (V2) or DMSO in sesame oil as controls.^21 Mice were given injections from embryonic day (E) E7-E13, with plug date equal to day 0. Controls were injected with vehicle (DMSO) dose and were matched with vinclozolin or flutamide treatment animals within the same mouse strain at the time of injection and were analyzed together throughout all three generations. […] Male mice were collected and analyzed between P60-P90 (P90) for all generations and treatment groups. […]"}, "129 and CD-1 mice": {"tested_on": "129 and CD-1 mice", "assay": "Litter size, sex ratio, body and tissue weights (toxicity)", "assay_type": "in vivo, mouse", "conditions": "transient embryonic exposure", "protocol": "as §1\nTimed pregnant inbred 129 mice were given intraperitoneal injections with vinclozolin (100 mg/kg·day, 99% pure; ChemService, West Chester, Pa.), flutamide (20 mg/kg·day, Sigma, St. Louis, Mo.) or DMSO in sesame oil (vehicle) as controls, while timed pregnant outbred CD-1 mice were given intraperitoneal injections (IP) with vinclozolin doses: 100 mg/kg·day (V1) or 200 mg/kg·day (V2) or DMSO in sesame oil as controls.^21 Mice were given injections from embryonic day (E) E7-E13, with plug date equal to day 0. Controls were injected with vehicle (DMSO) dose and were matched with vinclozolin or flutamide treatment animals within the same mouse strain at the time of injection and were analyzed together throughout all three generations. The number of treated gestating females used were: for mouse 129 strain (3 controls and 4 vinclozolin treated); for mouse 129 strain flutamide 20 mg/kg/day dose (3 controls and 3 flutamide treated); and for mouse CD-1 strain (4 control and 3 vinclozolin treated (100 mg/kg/day (V1), 3 vinclozolin 200 mg/kg/day (V2)). F1 postnatal (P)P90 males and females from different litters of control, vinclozolin and flutamide treatment groups were bred to generate the F2 generation. F2 generation mice were bred to generate the F3 generation. Breedings were carefully monitored to eliminate any sibling or cousin breeding to remove potential phenotypes as a result of inbreeding. Male mice were collected and analyzed between P60-P90 (P90) for all generations and treatment groups. The number of P90 males collected for replicates for the mouse 129 strain vinclozolin treatment group (i.e. n value) were: for F1 (8 control, 11 vinclozolin); for F2 (11 control, 22 vinclozolin); and for F3 (11 control, 11 vinclozolin). […]"}, "caudal epididymal sperm": {"tested_on": "caudal epididymal sperm", "assay": "Epididymal sperm motility and concentration analyses", "assay_type": "in vivo, mouse", "conditions": "primarily in the F1 generation males", "protocol": "The sperm motility was determined using caudal epididymal sperm. The epididymis was dissected free of connective tissue and a small cut made to the cauda. The tissue was placed in 2 ml F12 culture medium containing 0.1% BSA for 10 minutes at 37° C. Fifty microliters was placed on a warm slide and gently cover-slipped. The specimen was immediately examined using phase contrast microscopy with 200×magnification. The sperm motility assays examined rapid progressive, slow progressive and non-progressive motility according to WHO category.^51 The ratio of motile sperm to the total number of sperm, including immotile sperm, was calculated. Approximately 50-100 sperm were counted per microscopic field. The procedure was repeated at least twice with a new specimen from the same epididymis. Epididymal sperm count was determined using the same epididymis according to a previously described method with some modifications.^25, 52 Briefly, the epididymis that was placed in the 2 ml of culture medium was minced. The tissue pieces were stored at 4° C. for 48 hours to immobilize the sperm. Three independent sperm samples were counted using a hemocytometer. The counts were averaged and used as a replicate in statistical analysis. The control and vinclozolin generation analysis and the control and flutamide generation analysis for an individual experiment were done at the same time. All analyses were done blinded, such that different individuals were used for collection and counting."}, "[5]": {"conditions": "transgenerational F3 generation"}},
  "note": "“Also recorded” adds a separate entry of the source.",
  "data": [
    {"molecule": "Clc1cc2c(cc1Cl)Oc1cc(Cl)c(Cl)cc1O2", "note": "[dioxin, 2,3,7,8-tetrachlorodibenzo-p-dioxin]", "values": [
      {"measurement": "number of DMR", "setting": "[1]", "value": 50},
      {"measurement": "onset of puberty for females", "setting": "[2]; F2 generation", "value": "early onset"},
      {"measurement": "onset of puberty in males", "setting": "[2]; F2 generation", "value": "early onset"},
      {"measurement": "onset of puberty in females", "setting": "[2]; [5]", "value": "early onset; also recorded: advanced"},
      {"measurement": "onset of puberty in males", "setting": "[2]; [5]", "value": "no effect"},
      {"measurement": "testosterone levels", "setting": "[3]", "value": "reduction"}
    ]},
    {"molecule": "CC(C)C(=O)Nc1ccc([N+](=O)[O-])c(C(F)(F)F)c1", "note": "[flutamide]", "values": [
      {"measurement": "apoptotic germ cells in the testis", "setting": "[4]", "value": "no differences"},
      {"measurement": "body weight, testis weight index, or kidney weight index", "setting": "129 and CD-1 mice; F1-F3", "value": "no consistent transgenerational differences"},
      {"measurement": "litter size or male/female sex ratio", "setting": "129 and CD-1 mice; all generations analyzed", "value": "no consistent transgenerational effects"},
      {"measurement": "mean percentage of motile epididymal sperm", "setting": "caudal epididymal sperm", "value": "reduction"}
    ]}
  ]
}
